Calls of active or inactive are those of the source. The calls are words filed in the database; no cut-off is given here.
Columns and labels:
Liver [1] = assay: (§1) Metabolic stability in human liver microsomes assessed as compound remaining at 1 uM after 30 mins LC-MS analysis; assay type: ADME, Microsome; details: microsomes, 0.5 h, 1 µM, BLD = below limit of detection
A2780 = assay: cells; details: Homo sapiens, A2780, 72 h
[2] = target: Nicotinamide phosphoribosyltransferase (Homo sapiens, UniProt P43490)
Chain of Nicotinamide phosphoribosyltransferase (P43490 whole entry): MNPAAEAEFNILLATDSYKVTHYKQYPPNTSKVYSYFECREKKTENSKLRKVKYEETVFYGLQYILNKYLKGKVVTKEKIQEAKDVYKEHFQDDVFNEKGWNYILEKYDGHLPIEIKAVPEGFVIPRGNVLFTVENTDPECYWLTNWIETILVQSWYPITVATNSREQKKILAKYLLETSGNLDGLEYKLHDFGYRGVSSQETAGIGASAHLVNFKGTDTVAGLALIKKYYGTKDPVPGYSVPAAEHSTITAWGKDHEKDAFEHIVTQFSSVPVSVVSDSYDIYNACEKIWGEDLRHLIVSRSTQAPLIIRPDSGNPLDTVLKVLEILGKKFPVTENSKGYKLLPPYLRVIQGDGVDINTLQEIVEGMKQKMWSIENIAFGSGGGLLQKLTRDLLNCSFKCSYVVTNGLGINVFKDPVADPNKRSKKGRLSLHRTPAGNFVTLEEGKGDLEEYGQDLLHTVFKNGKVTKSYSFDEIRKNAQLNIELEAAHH

Liver [3] = assay: (§2) Metabolic stability in mouse liver microsomes assessed as compound remaining at 1 uM after 30 mins LC-MS analysis; assay type: ADME, Microsome; details: microsomes, 0.5 h, 1 µM, BLD = below limit of detection
[4] = as §1; assay type: ADME, Microsome; details: liver microsomes, read-out: Stability
[5] = Fraction unbound in human plasma at 5 uM after 4 hrs by LC-MS/MS analysis; assay type: ADME, cell-free
in vitro = details: dog, MDCK
[6] = Fraction unbound in mouse plasma at 5 uM after 4 hrs by LC-MS/MS analysis; assay type: ADME, cell-free
[7] = Intrinsic clearance in CD-1 mouse hepatocytes at 1 uM after 10 mins by LC-MS/MS analysis; assay type: ADME, cell-based, Hepatocyte; details: read-out: CLH
[8] = Intrinsic clearance in human hepatocytes at 1 uM after 10 mins by LC-MS/MS analysis; assay type: ADME, cell-based, Hepatocyte; details: read-out: CLH
[9] = as §2; assay type: ADME, Microsome; details: liver microsomes, read-out: Stability
[10] = Oral bioavailability in NCR nude mouse at 10 mg/kg; assay type: ADME, organism-based; details: in vivo
HCT-116 = assay: Antiproliferative activity against human HCT116 cells assessed as cell viability after 72 hrs; assay type: functional, cell-based; details: HCT-116, 72 h
Mus musculus = assay: Toxicity in human U251 cells xenografted in athymic nu/nu mouse assessed as change in body weight at 25 mg/kg, po QD for 7 days; assay type: organism-based, U-251; parameters: dose 25 mg/kg, route oral; details: in vivo, 168 h
PC-3 = assay: Antiproliferative activity against human PC3 cells assessed as cell viability after 72 hrs; assay type: functional, cell-based; details: PC-3, 72 h
[11] = AUC (infinity) in NCR nude mouse at 10 mg/kg, po; assay type: ADME, organism-based; parameters: time infinity, dose 10 mg/kg, route oral; details: plasma
[12] = Tmax in NCR nude mouse at 10 mg/kg, po; assay type: ADME, organism-based; parameters: dose 10 mg/kg, route oral; details: in vivo
[13] = Clearance in NCR nude mouse plasma at 5 mg/kg, iv; assay type: ADME, organism-based; parameters: dose 5 mg/kg, route intravenous
U-251 [14] = assay: Antitumor activity against human U251 cells xenografted in athymic nu/nu mouse assessed as reduction in tumor size at 25 mg/kg, po QD for 7 days measured on day 13; assay type: functional, organism-based; parameters: dose 25 mg/kg
U-251 [15] = assay: Antiproliferative activity against human U251 cells assessed as cell viability after 72 hrs by SRB assay; assay type: functional, cell-based; details: U-251, 72 h
MIA PaCa-2 = assay: Antiproliferative activity against human MIAPaCa2 cells assessed as cell viability after 72 hrs; assay type: functional, cell-based; details: MIA PaCa-2, 72 h
[16] = Volume of distribution at steady state in NCR nude mouse at 5 mg/kg, iv; assay type: ADME, organism-based; parameters: dose 5 mg/kg, route intravenous; details: in vivo, read-out: Vdss
[17] = Cmax in NCR nude mouse at 10 mg/kg, po; assay type: ADME, organism-based; parameters: dose 10 mg/kg, route oral; details: in vivo
HT-1080 = assay: Antiproliferative activity against human HT1080 cells assessed as cell viability after 72 hrs; assay type: functional, cell-based; details: HT-1080, 72 h

SMILES	IC50 (A2780) [nM]	IC50 [2] [nM]	Stability (Liver [3])	remaining at 0.5 h, 1 µM [4] [%]	fraction unbound at 4 h, 5 µM [5]	Papp A→B at 10 µM (in vitro) [×10⁻⁶ cm/s]	fraction unbound at 4 h, 5 µM [6]	CLint scaled at 1 µM [7] [mL/min/kg]	CLint scaled at 1 µM [8] [mL/min/kg]	remaining at 0.5 h, 1 µM [9] [%]	also measured
O=C(NCc1ccc(S(=O)(=O)N2CCCCC2)cc1)c1cc2cccnc2s1	> 10000	8	BLD	–	–	–	–	–	–	–	Stability (Liver [1]): BLD
Cn1c(C(=O)NCc2ccc(S(=O)(=O)c3ccccc3)cc2)cc2ccncc21	> 10000	410	BLD	71	–	–	–	–	–	–	–
O=C(NCc1ccc(S(=O)(=O)c2cccc(C(F)(F)F)c2)cc1)c1cc2cnccc2[nH]1	3	8	–	81	0.006	5	0.007	60	10	49	–
O=C(NCc1ccc(S(=O)(=O)c2ccc(N3CCOCC3)nc2)cc1)c1ccc2nccn2c1	1	6	–	65	0.012	3	0.025	43	10	75	–
O=C(NCc1ccc(S(=O)(=O)c2ccc(N3CCOCC3)nc2)cc1)c1cnc2nccn2c1	2	1	–	86	0.028	0.3	0.12	69	6	86	–
O=C(NCc1ccc(S(=O)(=O)N2CCCCC2)cc1)c1ccc2ncsc2c1	> 10000	37	BLD	24	–	–	–	–	–	–	–
O=C(NCc1ccc(S(=O)(=O)c2cccc(C(F)(F)F)c2)cc1)c1cc2ccncc2o1	3	5	–	48	0.01	13	0.011	25	10	64	–
O=C(NCc1ccc(S(=O)(=O)c2ccc(N3CCOCC3)nc2)cc1)c1cc2ccncc2o1	1	3	–	51	0.005	15	0.017	48	14	42	–
O=C(NCc1ccc(S(=O)(=O)N2CCCCC2)cc1)c1cc2cnccc2s1	1600	150	BLD	15	–	–	–	–	–	–	–
O=C(NCc1ccc(S(=O)(=O)c2cc(F)cc(F)c2)cc1)c1ccc2nccn2c1	2	–	–	53	0.06	12	0.067	42	10	39	bioavailability [10]: 41.1%; IC50 (HCT-116): 2 nM; Activity (Mus musculus): Non-toxic; IC50 (PC-3): 2.7 nM; AUC(0-inf) [11]: 3.06 µM·h; Tmax [12]: 15 min; clearance [13]: 52.4 mL/min/kg; Activity (U-251 [14]): Active; IC50 (U-251 [15]): 1.8 nM; IC50 (MIA PaCa-2): 7.4 nM; Vd [16]: 6.7 L/kg; Cmax [17]: 1210 nM; IC50 (HT-1080): 2.1 nM
O=C(NCc1ccc(S(=O)(=O)N2CCCCC2)cc1)c1cc2ccncc2[nH]1	1700	1000	BLD	50	–	–	–	–	–	–	–

— ChEMBL document CHEMBL2417368, “Structure-based discovery of novel amide-containing nicotinamide phosphoribosyltransferase (nampt) inhibitors” (J Med Chem, 2013)
